Experimental data published in US10030027B2, “Soluble guanylate cyclase stimulators” (MERCK SHARP & DOHME CORP., priority 2015, dated 2018).
Like-named read-outs stand apart in the source and are kept apart here.

Columns and labels:
[1] = molecular target: sGC α1/β1 heterodimer (Homo sapiens (Human), UniProt Q02108+Q02153); assay: Cell-based sGC functional assay (cyclic GMP assay for sGC activator: CASA assay); design: % Activation: concentration or dose not given beside the values; conditions: CHO-K1/sGC cells; for Emax: read-out: % Activation; for EC50: inflection point, 4P fit, read-out: IP
Summary of the method: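 CHO-K1 cells stably expressing human sGC α1/β1 were pre-incubated 30 min at 25° C with or without 1 μM DETA-NO, then exposed to compound for 1 hr at 37° C with 0.5 mM IBMX and 2.5% DMSO final. Intracellular cGMP was measured by HTRF, expressed as % of reference sGC-HDA maximum; inflection point and maximum fold induction came from 4-parameter fits.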

[2] = molecular target: human recombinant sGC enzyme (Homo sapiens (Human), UniProt Q02108+Q02153); assay: Size Exclusion Chromatography (SEC) competition binding assay using [3H] Ex-77B as the radioligand; conditions: [3H] Ex-77B radioligand, 24 hours at 37° C.
Summary of the method: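 Recombinant human sGC binding measured by competition against tritiated Ex-77B radioligand, with non-specific binding defined by 1 μM unlabeled Ex-77B.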

[3] = CHO-K1, activity expressed as percentage of compound A (standard)
[4] = activity expressed as percentage of compound A (standard)

Emax [1, 3] | EC50 [1] | Ki [2] | % Activation [1, 4] | Structure (SMILES) | Emax [1, 4]
89% | 1040 nM | 0.286 nM | – | C[C@@]1(c2ccc(CCC(=O)O)cc2)C(=O)Nc2nc(-c3nn(CCCC(F)(F)F)c4nc(Cl)ccc34)nc(N)c21 [Example 19B, (S)-3-(4-{4-amino-2-[6-chloro-1-(4,4,4-trifluorobutyl)-1H-pyrazolo[3,4-b]pyridin-3-yl]-5-methyl-6-oxo-6,7-dihydro-5H-pyrrolo[2,3-d]pyrimidin-5-yl}phenyl)propanoic acid] | –
134% | 1070 nM | 0.107 nM | – | Cc1oc(C2(C)C(=O)Nc3nc(-c4nn(Cc5cccc(F)c5)c5cc(F)ccc45)nc(N)c32)nc1CC(C)(C)C(=O)O (centres unmarked) [Example 198B, 3-(2-{4-amino-2-[6-fluoro-1-(3-fluorobenzyl)-1H-indazol-3-yl]-5-methyl-6-oxo-6,7-dihydro-5H-pyrrolo[2,3-d]pyrimidin-5-yl}-5-methyl-1,3 - oxazol-4-yl)-2,2-dimethyl-propanoic acid] | –
119% | 210 nM | 0.05 nM | – | CC(C)(Cc1coc(C2(C)C(=O)Nc3nc(-c4nn(Cc5cccc(F)c5)c5ccccc45)nc(N)c32)n1)C(=O)O (centres unmarked) [Example 223A, 3-(2-{4-amino-2-[1-(3-fluoro-benzyl)-1H-indazol-3-yl]-5-methyl-6-oxo-6,7-dihydro-5H-pyrrolo[2,3-d]pyrimidin-5-yl}-1,3-oxazol-4-yl)-2,2-dimethyl-propanoic acid] | –
94.4% | 2480 nM | 1.64 nM | – | CC1(c2ccc(C(=O)O)cc2)C(=O)Nc2nc(-c3nn(Cc4ccccc4F)c4cc(Cl)ccc34)nc(N)c21 (centres unmarked) [Example 209B, 4-{4-amino-2-[6-chloro-1-(2-fluorobenzyl)-1H-indazol-3-yl]-5-methyl-6-oxo-6,7-dihydro-5H-pyrrolo[2,3-d]pyrimidin-5-yl} benzoic acid] | –
130% | 8330 nM | 1.41 nM | – | CC(C)(Cn1cc(C2(C)C(=O)Nc3nc(-c4nn(CCC(F)(F)C(F)(F)F)c5cc(Cl)ccc45)nc(N)c32)nn1)C(=O)O (centres unmarked) [Example 31B, 3-(4-{4-amino-2-[6-chloro-1-(3,3,4,4,4-pentafluorobutyl)-1H-indazol-3-yl]-5-methyl-6-oxo-6,7-dihydro-5H-pyrrolo[2,3-d]pyrimidin-5-yl}-1H-1,2,3-triazol-1-yl)-2,2-dimethylpropanoic acid] | –
118% | 262 nM | 0.144 nM | – | CC(C)(Cc1csc([C@]2(C)C(=O)Nc3nc(-c4nn(Cc5ccc(F)cc5F)c5cc(Cl)ccc45)nc(N)c32)n1)C(=O)O [Example 179A, (S)-3-(2-{4-amino-2-[6-chloro-1-(2,4-difluorobenzyl)-1H-indazol-3-yl]-5-methyl-6-oxo-6,7-dihydro-5H-pyrrolo[2,3-d]pyrimidin-5-yl}-1,3-thiazol-4-yl)-2,2-dimethyl-propanoic acid] | –
63.5% | 74 nM | 0.146 nM | – | C[C@@]1(c2ccc(CCC(=O)O)cc2)C(=O)Nc2nc(-c3nn(CC4CCCC4)c4ccccc34)nc(N)c21 [Example 227B, (S)-3-(4-{4-amino-2-[1-(cyclopentyl-methyl)-1H-indazol-3-yl]-5-methyl-6-oxo-6,7-dihydro-5H-pyrrolo[2,3-d]pyrimidin-5-yl}phenyl)propanoic acid] | –
92.1% | 150 nM | 0.163 nM | – | C[C@@]1(c2ccc(CCC(=O)O)cc2)C(=O)Nc2nc(-c3nn(Cc4ccc(F)cc4)c4ccccc34)nc(N)c21 (single isomer, unassigned) [Example 221B] | –
88.8% | 353 nM | 0.864 nM | – | Nc1nc(-c2nn(CCC(F)(F)C(F)(F)F)c3cc(Cl)ccc23)nc2c1C(c1ccc(CCC(=O)O)cc1)(C1CC1)C(=O)N2 (centres unmarked) [Example 158A, 3-(4-{4-amino-2-[6-chloro-1-(3,3,4,4,4-penta-fluorobutyl)-1H-indazol-3-yl]-5-cyclopropyl-6-oxo-6,7-dihydro-5H-pyrrolo[2,3-d]pyrimidin-5-yl}phenyl)propanoic acid] | –
82% | 1090 nM | 3.65 nM | – | COCCn1nc(-c2nc(N)c3c(n2)NC(=O)C3(C)c2cccc(CC(C)(C)C(=O)O)c2)c2ccc(Cl)cc21 (centres unmarked) [Example 39B, 3-(3-{4-amino-2-[6-chloro-1-(2-methoxyethyl)-1H-indazol-3-yl]-5-methyl-6-oxo-6,7-dihydro-5H-pyrrolo[2,3-d]pyrimidin-5-yl}phenyl)-2,2-dimethylpropanoic acid] | –
124% | 1420 nM | 0.067 nM | – | CC1(c2ccc(/C=C/C(=O)O)cc2)C(=O)Nc2nc(-c3nn(Cc4ccccc4F)c4ncccc34)nc(N)c21 (centres unmarked) [Example 217A, (2E)-3-(4-{4-amino-2-[1-(2-fluorobenzyl)-1H-pyrazolo[3,4-b]pyridin-3-yl]-5-methyl-6-oxo-6,7-dihydro-5H-pyrrolo[2,3-d]pyrimidin-5-yl}phenyl)prop-2-enoic acid] | –
78% | 1660 nM | 2 nM | – | CC1(c2cnn(CCC(=O)O)n2)C(=O)Nc2nc(-c3nn(CCC(F)(F)C(F)(F)F)c4ncccc34)nc(N)c21 (centres unmarked) [Example 109B, 3-(4-{4-Amino-5-methyl-6-oxo-2-[1-(3,3,4,4,4-pentafluorobutyl)-1H-pyrazolo[3,4-b]pyridin-3-yl]-6,7-dihydro-5H-pyrrolo[2,3-d]pyrimidin-5-yl}-2H-1,2,3-triazol-2-yl)propanoic acid] | –
– | 193 nM | 0.665 nM | – | CC1(c2cn(C(C)(C)C(=O)O)nn2)C(=O)Nc2nc(-c3nn(Cc4ccccc4F)c4cc(Cl)ccc34)nc(N)c21 (single isomer, unassigned) [Example 141A, 2-(4-{4-Amino-2-[6-chloro-1-(2-fluorobenzyl)-1H-indazol-3-yl]-5-methyl-6-oxo-6,7-dihydro-5H-pyrrolo[2,3-d]pyrimidin-5-yl}-1H-1,2,3-triazol-1-yl)-2-methylpropanoic acid] | –
108% | 66 nM | 0.07 nM | – | CC(C)(Cc1csc([C@]2(C)C(=O)Nc3nc(-c4nn(Cc5cccc(F)c5F)c5cc(F)ccc45)nc(N)c32)n1)C(=O)O [Example 199A, (S)-3-(2-{4-amino-2-[1-(2,3-difluorobenzyl)-6-fluoro-1H-indazol-3-yl]-5-methyl-6-oxo-6,7-dihydro-5H-pyrrolo[2,3-d]pyrimidin-5-yl}-1,3-thiazol-4-yl)-2,2-dimethyl-propanoic acid] | –
135% | 265 nM | 0.947 nM | – | CC1(c2nc(C[C@H](N)C(=O)O)cs2)C(=O)Nc2nc(-c3nn(Cc4ccccc4F)c4cc(Cl)ccc34)nc(N)c21 (stereo partly drawn) [Example 234B, (S)-3-(2-{4-Amino-2-[6-chloro-1-(2-fluorobenzyl)-1H-indazol-3-yl]-5-methyl-6-oxo-6,7-dihydro-5H-pyrrolo[2,3-d]pyrimidin-5-yl}-1,3-thiazol-4-yl)-D-alanine] | –
– | 1960 nM | 0.874 nM | 95.8% | CC(C)(Cc1csc([C@]2(C)C(=O)Nc3nc(-c4nn(CC5CCCCO5)c5ncccc45)nc(N)c32)n1)C(=O)O (single isomer, unassigned) [Example 123AB] | –
126% | 351 nM | 0.118 nM | – | CC(C)(CCc1coc(C2(C)C(=O)Nc3nc(-c4nn(Cc5cccc(F)c5)c5cc(Cl)ccc45)nc(N)c32)n1)C(=O)O (centres unmarked) [Example 177B, 4-(2-{4-amino-2-[6-chloro-1-(3-fluorobenzyl)-1H-indazol-3-yl]-5-methyl-6-oxo-6,7-dihydro-5H-pyrrolo[2,3-d]pyrimidin-5-yl}-1,3-oxazol-4-yl)-2,2-dimethyl-butanoic acid] | –
98.5% | 2620 nM | 0.068 nM | – | CC1(c2cccc(-c3nn[nH]n3)c2)C(=O)Nc2nc(-c3nn(Cc4ccccc4F)c4cc(F)ccc34)nc(N)c21 (centres unmarked) [Example 249B, 4-Amino-2-[6-fluoro-1-(2-fluorobenzyl)-1H-indazol-3-yl]-5-methyl-5-[3-(1H-tetrazol-5-yl)phenyl]-5,7-dihydro-6H-pyrrolo[2,3-d]pyrimidin-6-one] | –
– | 89 nM | 0.074 nM | 109.2% | CC1CCC(Cn2nc(-c3nc(N)c4c(n3)NC(=O)C4(C)c3nc(CC(C)(C)C(=O)O)co3)c3ccc(Cl)cc32)CC1 (single isomer, unassigned) [Example 132AB, 3-{2-[4-amino-2-{6-chloro-1-[4-methylcyclohexylmethyl]-1H-indazol-3-yl}-5-methyl-6-oxo-6,7-dihydro-5H-pyrrolo[2,3-d]pyrimidin-5-yl]-1,3-oxazol-4-yl}-2,2-dimethylpropanoic acid] | –
110% | 478 nM | 0.158 nM | – | CC(C)(Cc1csc([C@]2(C)C(=O)Nc3nc(-c4nn(Cc5ccccc5F)c5ccccc45)nc(N)c32)n1)c1nn[nH]n1 (single isomer, unassigned) [Example 236A] | –

Structure (SMILES) | Emax [1, 3] | EC50 [1] | Ki [2] | % Activation [1, 4] | Emax [1, 4]
C[C@@]1(c2ccc(CCc3noc(=O)[nH]3)cc2)C(=O)Nc2nc(-c3nn(Cc4ccccc4F)c4cc(Cl)ccc34)nc(N)c21 [Example 256B, (S)-4-Amino-2-[6-chloro-1-(2-fluorobenzyl)-1H-indazol-3-yl]-5-methyl-5-{4-[2-(5-oxo-4,5-dihydro-1,2,4-oxadiazol-3-yl)ethyl]phenyl}-5,7-dihydro-6H-pyrrolo[2,3-d]pyrimidin-6-one] | – | 2050 nM | 0.074 nM | – | 104%
